The values below are quoted from earlier work in PMC9869109 (Angewandte Chemie (International ed. in English), 2022).

For the data set, the system named is cell nuclei. The note with it: previous result ref 12.

With NBD-llllpY, the nuclear-targeting ability result is “weak nuclear-targeting ability”.
